Measurements taken from patent US9315453B2, “4-(3-benzyloxyphenylthio)-2-chloro-1-(3-nitropropyl)benzene crystal” (KYORIN PHARMACEUTICAL CO., LTD., priority 2012, dated 2016).

Tests used:
[1] = Stability test of the crystals under accelerated and long-term storage conditions; format: physicochemical; settings: 6 months after the start of the test, crystals obtained in Example 1
Method: The crystals of the compound 1 obtained in Example 1 were subjected to a stability test under accelerated conditions (40° C./75% RH) and long-term storage conditions (25° C./60% RH).

[2] = accelerated conditions (40° C./75% RH)
[3] = long-term storage conditions (25° C./60% RH)

melting point: 46 to 47 °C
change in the appearance of the crystals [1, 2]: No change in the appearance
formation of decomposition products [1, 2]: no decomposition products were formed
change in the appearance of the crystals [1, 3]: No change in the appearance
formation of decomposition products [1, 3]: no decomposition products were formed
Compound: O=[N+]([O-])CCCc1ccc(Sc2cccc(OCc3ccccc3)c2)cc1Cl [compound 1, 4-(3-benzyloxyphenylthio)-2-chloro-1-(3-nitropropyl)benzene]
